From US8530489B2 (Vertex Pharmaceuticals Incorporated, priority 2006, dated 2013)
pKi: −log10 of the molar value.

What was measured:
Type in all cases: biochemical
[1] = target: PLK1 (Homo sapiens, UniProt P53350); test: PLK1 Inhibition Assay I (radioactive-phosphate incorporation); conditions: Ki(app); PLK1 Inhibition Assay I or II (table does not say which)
In short: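 Ki(app) values came from non-linear regression of initial rates after background subtraction, with phosphopeptide measured by phosphocellulose filter binding and scintillation counting. PLK1 at 2 nM was preincubated with compound (typically from 10 μM, 2-fold dilutions) for 10 min, then run 240 min at 25° C with 350 μM [γ-33P]ATP and 450 μM peptide substrate in HEPES pH 7.5 buffer.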

[2] = target: T1, PLK3 (S38-A340) (Homo sapiens, UniProt Q9H4B4); test: PLK3 Inhibition Assay (radioactive-phosphate incorporation); conditions: selectivity ratio, PLK3 over PLK1
T1 construct: in the presence of 5 nM PLK3 (S38-A340)
Method: (§1) The compounds of the present invention are evaluated as inhibitors of human PLK kinase using the following assays.
Compounds were screened for their ability to inhibit PLK3 using a radioactive-phosphate incorporation assay. Assays were carried out in a mixture of 25 mM HEPES (pH 7.5), 10 mM MgCl2, and 1 mM DTT. Final substrate concentrations were 75 μM [γ-33P]ATP (60 mCi 33P ATP/mmol ATP, Amersham Pharmacia Biotech/Sigma Chemicals) and 10 μM peptide (SAM68 protein Δ332-443). Assays were carried out at 25° C. in the presence of 5 nM PLK3 (S38-A340). An assay stock buffer solution was prepared containing all of the reagents listed above, with the exception of ATP and the test compound of interest. 30 μL of the stock solution was placed in a 96 well plate followed by addition of 2 μL of DMSO stock containing serial dilutions of the test compound (typically starting from a final concentration of 10 μM with 2-fold serial dilutions) in duplicate (final DMSO concentration 5%). The plate was pre-incubated for 10 minutes at 25° C. and the reaction initiated by addition of 8 μL [γ-33P]ATP (final concentration 75 μM).
(§2) The reaction was stopped after 60 minutes by the addition of 100 μL 0.14M phosphoric acid. A multiscreen phosphocellulose filter 96-well plate (Millipore, Cat No. MAPHN0B50) was pretreated with 100 μL 0.2M phosphoric acid prior to the addition of 125 μL of the stopped assay mixture. The plate was washed with 4×200 μL 0.2 M phosphoric acid. After drying, 100 μL Optiphase ‘SuperMix’ liquid scintillation cocktail (Perkin Elmer) was added to the well prior to scintillation counting (1450 Microbeta Liquid Scintillation Counter, Wallac).
(§3) After removing mean background values for all of the data points, Ki(app) data were calculated from non-linear regression analysis of the initial rate data using the Prism software package (GraphPad Prism version 3.0cx for Macintosh, GraphPad Software, San Diego Calif., USA).

[3] = target: PLK2 (Homo sapiens, UniProt Q9NYY3); test: PLK2 Inhibition Assay (radioactive-phosphate incorporation); conditions: selectivity ratio, PLK2 over PLK1
Method: as §1
Compounds were screened for their ability to inhibit PLK2 using a radioactive-phosphate incorporation assay. Assays were carried out in a mixture of 25 mM HEPES (pH 7.5), 10 mM MgCl2, 0.1% BSA, and 2 mM DTT. Final substrate concentrations were 200 μM [γ-33P]ATP (57 mCi 33P ATP/mmol ATP, Amersham Pharmacia Biotech/Sigma Chemicals) and 300 μM peptide (KKKISDELMDATFADQEAK) [SEQ ID:3]. Assays were carried out at 25° C. in the presence of 25 nM PLK2. An assay stock buffer solution was prepared containing all of the reagents listed above, with the exception of ATP and the test compound of interest. 30 μL of the stock solution was placed in a 96 well plate followed by addition of 2 μL of DMSO stock containing serial dilutions of the test compound (typically starting from a final concentration of 10 μM with 2-fold serial dilutions) in duplicate (final DMSO concentration 5%). The plate was pre-incubated for 10 minutes at 25° C. and the reaction initiated by addition of 8 μL [γ-33P]ATP (final concentration 200 μM).
as §2, with “90” for “60”, “0.14 M” for “0.14M”
as §3

Sequence of PLK1 (P53350 whole entry): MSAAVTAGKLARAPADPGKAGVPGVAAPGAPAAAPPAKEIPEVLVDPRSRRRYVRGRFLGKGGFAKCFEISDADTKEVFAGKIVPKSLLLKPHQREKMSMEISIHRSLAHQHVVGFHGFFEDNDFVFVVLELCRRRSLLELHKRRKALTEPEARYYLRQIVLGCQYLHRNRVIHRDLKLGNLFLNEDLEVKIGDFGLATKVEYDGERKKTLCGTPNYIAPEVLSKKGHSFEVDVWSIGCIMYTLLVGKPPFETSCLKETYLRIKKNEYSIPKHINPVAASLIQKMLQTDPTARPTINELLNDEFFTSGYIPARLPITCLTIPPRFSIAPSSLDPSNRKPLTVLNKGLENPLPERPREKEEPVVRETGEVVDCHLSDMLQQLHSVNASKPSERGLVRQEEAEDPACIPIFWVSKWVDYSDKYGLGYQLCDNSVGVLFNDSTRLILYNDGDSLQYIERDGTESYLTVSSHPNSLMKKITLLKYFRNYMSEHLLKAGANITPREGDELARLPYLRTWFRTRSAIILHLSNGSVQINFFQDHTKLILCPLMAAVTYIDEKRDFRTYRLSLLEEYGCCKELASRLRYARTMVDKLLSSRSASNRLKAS
T1 sequence (Q9H4B4 58-340 limits assumed): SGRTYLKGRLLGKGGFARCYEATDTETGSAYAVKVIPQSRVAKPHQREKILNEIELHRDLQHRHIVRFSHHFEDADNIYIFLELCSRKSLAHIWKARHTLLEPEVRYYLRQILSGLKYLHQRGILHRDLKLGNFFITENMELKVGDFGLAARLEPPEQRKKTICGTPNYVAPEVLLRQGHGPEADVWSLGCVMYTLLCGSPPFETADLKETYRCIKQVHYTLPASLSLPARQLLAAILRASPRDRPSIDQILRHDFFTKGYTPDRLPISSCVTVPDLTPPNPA
Sequence of PLK2 (Q9NYY3 whole entry): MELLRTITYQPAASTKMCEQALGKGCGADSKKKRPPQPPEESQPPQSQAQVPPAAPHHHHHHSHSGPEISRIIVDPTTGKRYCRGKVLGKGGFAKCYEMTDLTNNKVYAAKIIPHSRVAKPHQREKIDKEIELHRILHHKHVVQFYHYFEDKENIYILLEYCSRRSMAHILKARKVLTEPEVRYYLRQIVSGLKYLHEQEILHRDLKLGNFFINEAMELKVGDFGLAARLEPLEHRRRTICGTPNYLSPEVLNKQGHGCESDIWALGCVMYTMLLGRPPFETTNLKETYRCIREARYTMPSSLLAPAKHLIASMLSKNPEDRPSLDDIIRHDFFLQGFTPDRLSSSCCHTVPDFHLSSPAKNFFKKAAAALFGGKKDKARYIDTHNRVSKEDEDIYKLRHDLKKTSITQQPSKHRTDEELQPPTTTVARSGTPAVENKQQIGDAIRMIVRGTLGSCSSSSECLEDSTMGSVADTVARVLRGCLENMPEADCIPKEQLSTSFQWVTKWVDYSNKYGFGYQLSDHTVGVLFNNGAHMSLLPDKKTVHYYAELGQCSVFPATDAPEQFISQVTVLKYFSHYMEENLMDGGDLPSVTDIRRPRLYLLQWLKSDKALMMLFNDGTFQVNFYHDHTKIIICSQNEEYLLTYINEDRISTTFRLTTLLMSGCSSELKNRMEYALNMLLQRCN

SMILES | pKi [1] | Ki(PLK3)/Ki(PLK1) [2] | Ki(PLK2)/Ki(PLK1) [3]
C[C@@H](Nc1ncc(C#N)c(-c2c[nH]c3ncc(C(F)(F)F)cc23)n1)c1ccc(N2CCN(C)CC2)c(F)c1 [Compound I-142, 2-((R)-1-(3-fluoro-4-(4-methylpiperazin-1-yl)phenyl)ethylamino)-4-(5-(trifluoromethyl)-1H-pyrrolo[2,3-b]pyridin-3-yl)pyrimidine-5-carbonitrile] | > 8.52 | <23 | <30
C[C@H](Nc1ncc(C#N)c(-c2c[nH]c3ncc(C(F)(F)F)cc23)n1)c1ccc(N2CCN(C)CC2)nc1 [Compound I-148] | 7.40 to 8.52 | 70 | 63
CNCCNc1ccc(C(C)Nc2ncc(C#N)c(-c3c[nH]c4ncc(C(F)(F)F)cc34)n2)cn1 (stereo not drawn) [Compound I-278, 2-(1-(6-(2-(methylamino)ethylamino)pyridin-3-yl)ethylamino)-4-(5-(trifluoromethyl)-1H-pyrrolo[2,3-b]pyridin-3-yl)pyrimidine-5-carbonitrile] | > 8.52 | 142 | 208
C[C@H]1CN(c2ccc([C@@H](C)Nc3ncc(C#N)c(-c4c[nH]c5ncc(C(F)(F)F)cc45)n3)cn2)CCN1 [Compound I-273, 2-((R)-1-(6-((S)-3-methylpiperazin-1-yl)pyridin-3-yl)ethylamino)-4-(5-(trifluoromethyl)-1H-pyrrolo[2,3-b]pyridin-3-yl)pyrimidine-5-carbonitrile] | > 8.52 | 581 | 1813
C[C@@H](Nc1ncc(C#N)c(-c2c[nH]c3ncc(C(F)(F)F)cc23)n1)c1ccc(N2CCN(C)CC2)cc1F [Compound I-149, 2-((R)-1-(2-fluoro-4-(4-methylpiperazin-1-yl)phenyl)ethylamino)-4-(5-(trifluoromethyl)-1H-pyrrolo[2,3-b]pyridin-3-yl)pyrimidine-5-carbonitrile] | > 8.52 | <100 | <130
CC(Nc1ncc(C#N)c(-c2c[nH]c3ncc(C(F)(F)F)cc23)n1)c1ccc(N[C@@H]2CCNC2)nc1 (stereo partly drawn) [Compound I-272, 2-(1-(6-((R)-pyrrolidin-3-ylamino)pyridin-3-yl)ethylamino)-4-(5-(trifluoromethyl)-1H-pyrrolo[2,3-b]pyridin-3-yl)pyrimidine-5-carbonitrile] | > 8.52 | 14 | 67
CC(Nc1ncc(C#N)c(-c2c[nH]c3ncc(C(F)(F)F)cc23)n1)c1ccc(N2CCNCC2)nc1 (stereo not drawn) [Compound I-167, 2-(1-(6-(piperazin-1-yl)pyridin-3-yl)ethylamino)-4-(5-(trifluoromethyl)-1H-pyrrolo[2,3-b]pyridin-3-yl)pyrimidine-5-carbonitrile] | > 8.52 | 586 | 914
CC(Nc1ncc(C#N)c(-c2c[nH]c3ncc(C(F)(F)F)cc23)n1)c1ccc(N2CCCNCC2)cc1 (stereo not drawn) [Compound I-131, 2-(1-(4-(1,4-diazepan-1-yl)phenyl)ethylamino)-4-(5-(trifluoromethyl)-1H-pyrrolo[2,3-b]pyridin-3-yl)pyrimidine-5-carbonitrile] | > 8.52 | 163 | 180
